Where two headings read alike, the source gives them in different places.
Experiments:
[1] = Storage stability at 4° C. (fraction of drug bound, dialysis); type: physicochemical
Procedure: To test the long-term stability, the multi-drug nanoparticles were stored under refrigeration at 4° C. and were tested for stability after a prolonged period. The lipid-drug combination particles are stable as determined by both particle size and degree of drug association (Table 12). […] Even the hydrophilic compound, which readily diffuses out of most lipid particles in a number of hours, loses a remarkably low fraction of the associated drug after 8, 12, and 17 months in storage. This exceptional stability provides a substantial advantage for translation to clinical application.

[2] = in vivo; settings: for concentration at 24 h: sc, Mean drug concentration, Plasma; for LNP/free ratio of plasma AUC 0-168: increase in total drug exposure, fold
Source text: Four young adult male macaques (Macaca nemestrina, 2.9-4.0 kg) were housed and cared for by the Washington National Primate Research Center (WaNPRC) under an approved Institutional Animal Care and Use Committee protocol.
The vehicle for the first suspension was bicarbonate-buffered saline with 3% ethanol and 0.2% bovine serum albumin. The vehicle for the second suspension was bicarbonate-buffered saline with 8% DMSO and 0.1% Tween 20.
(§1) Four macaques were divided into two treatment groups (two animals per group). […] Data were normalized to the anti-HIV LNP dose for comparative analysis.
(§2) Plasma was removed, PBMCs were isolated by the density gradient method, and cells were aliquoted into pellets of approximately 2 million PBMCs each. An inguinal lymph node was surgically excised 24 h after drug administration (n=2 per treatment), LNMCs were isolated by passage through a 100-lm nylon cell strainer (Corning, Tewksbury, Mass.), and cells were aliquoted into pellets of approximately 1-2 million LNMCs each. All samples were stored at −80° C. prior to drug analysis.
(§3) Plasma concentrations of all three drugs were analyzed simultaneously by liquid chromatography-tandem mass spectrometry using a recently published method. […] Antimicrob Agents Chemother 2014; 58(5):2675-2680, incorporated herein by reference in its entirety. PBMC and LNMC pellets were lysed using 200 μl water/methanol (1:1 v/v), sonicated for 10 min, and then extracted and analyzed using the same method as cited above. Intracellular concentrations were converted to ng/ml with the assumption that each cell has a volume of 4×10^−9 ml. Alberts B, Johnson A, Lewis J, et al. Molecular Biology of the Cell, 4 ed. Garland Science, New York, 2002, incorporated herein by reference in its entirety.
Data were analyzed by paired two-tailed Student's t-test with p<0.05 considered statistically significant.

[3] = Plasma time course of ATV/RTV/TFV lipid nanoparticles in primates; type: in vivo, Macaca nemestrina; settings: for AUC fraction (% total) 8-168 h: male, Macaca nemestrina, in vivo, sc
Procedure: All animal procedures were performed under an approved protocol reviewed by the University of Washington Institutional Animal Care and Use Committee. […] ATV, RTV, and TFV in the plasma were extracted in duplicate and analyzed with a liquid chromatography-mass spectrometry assay with a validated reverse phase HPLC/MS/MS method, similar to that of lopinavir (LPV), RTV, and TFV. […] Antimicrobial agents and chemotherapy. 2014. The linear trapezoidal method was used to calculate the area under the plasma drug concentration-time curve (AUC) for ATV, RTV, and TFV during the time course, which was close to 168 h post-dosing. […] All drugs in buffer and plasma were analyzed using a validated HPLC/MS/MS analytical method, capable of analyzing […], and TFV. The one-step analysis for LPV, RTV, and TFV was published previously. […] Antimicrobial agents and chemotherapy. 2014. Briefly, the HPLC system was outfitted with a Shimadzu 20AD HPLC (Shimadzu Scientific Instruments, Inc., Pleasanton, Calif.). […] Multiple reaction monitoring (MRM) was used to detect transition ions from a specific precursor ion to product ion. The analytes were detected using the following m/z transitions: 705.5/168.2 for ATV, 548.3/392.3 for DRV, 721.3/296.1 for RTV, 288.1/176 for TFV, and 238.1/193.2 for cyheptamide.

[4] = pH dependent drug release from LPV/RTV/TFV lipid nanoparticles; type: physicochemical; settings: 2 hrs
Source text: As described above, we established the pH-dependent association of various drugs to lipids at neutral pH and the consequent release of the drugs when pH is lowered. Also described above, this stable integration and pH-dependent release of drugs from the multiple drug lipid nanoparticles was consistent for both lipophilic and water soluble compounds. To confirm the pH dependent release of the individual drugs from the multiple drug combination lipid nanoparticles, LPV/RTV/PMPA(TFV) lipid nanoparticles, assembled as described above, were subjected to different pH environments, and the free drug component of the supernatant was assayed to determine the amount of release. […] When a lipid nanoparticle is localized in tissues and taken up by HIV-infected cells, the incorporated antiretroviral drugs are then released inside the cell organelles (such as endosome and lysosomes) when the pH is lowered.

[5] = tested on: HIV-2(287) replication; experiment: Antiviral activity in HIV-infected CEM-174 cells; type: cell-based
Procedure: The antiviral activity of the three-drug combination in soluble or LNP form was evaluated in HIV-infected CEM-174 cells as described previously. […] J Acquir Immune Defic Syndr 2003; 34(4):387-397, incorporated herein by reference in its entirety. […] The dose of drugs added to cells represents the sum of bound and unbound drugs in these anti-HIV LNP formulations.

[6] = Intracellular drug concentration in inguinal lymph node mononuclear cells (LNMCs); settings: for Kp at 24 h / concentration at 24 h: male, Macaca nemestrina, in vivo; for Kp at 24 h: LN/plasma ratio; for concentration at 24 h: sc, Mean drug concentration, Lymph node
Procedure: as §1, §2, §3

[7] = Drug incorporation/encapsulation (association) efficiency of multi-drug LNPs by dialysis; type: physicochemical; settings: for Degree of incorporation (% total): anti-HIV LNPs LPV/RTV/PMPA
Procedure: The anti-HIV LNP formulations contain both unbound drug and drugs bound to lipid nanoparticles. […] Drugs were quantified by LC-MS/MS using acetonitrile precipitation. Encapsulation efficiency (EE) was calculated as follows: […]

[8] = tested on: HIV-1; experiment: microbe, parasite or virus in culture
[9] = male, Macaca nemestrina, in vivo
[10] = male, Macaca nemestrina, in vivo, Anti-HIV LNP treatment
[11] = male, Macaca nemestrina, in vivo, Free drug treatment
[12] = Human immunodeficiency virus 2, CEM174, LPV:RTV:PMPA fixed 1:1:0.5 (m/m/m), LNP form, read-out: EC50 (nM), Drug-lipid nanoparticles with 3 drug combination
[13] = Human immunodeficiency virus 2, CEM174, LPV:RTV:PMPA fixed 1:1:0.5 (m/m/m), free form, read-out: EC50 (nM), Soluble 3 drug combination
[14] = Combination 1, lipid:LPV:RTV:TFV 115:10:5:15, large scale
[15] = Combination 2, lipid:ATZ:RTV:TFV 115:10:5:15, large scale
[16] = Human immunodeficiency virus 1, read-out: EC50 in LNP form
[17] = Human immunodeficiency virus 1, read-out: EC50 in free form
[18] = plasma, listed as Tenofovir (PMPA)

CC(C)c1nc(CN(C)C(=O)N[C@H](C(=O)N[C@@H](Cc2ccccc2)C[C@H](O)[C@H](Cc2ccccc2)NC(=O)OCc2cncs2)C(C)C)cs1 [Ritonavir (RTV), Ritonavir]
Fraction of drug bound in multi-drug nanoparticles (% total) ([1]; 0 months): 88.30 ± 7.38% | Fraction of drug bound in multi-drug nanoparticles (% total) ([1]; 8 months): 93.01 ± 7.70% | Fraction of drug bound in multi-drug nanoparticles (% total) ([1]; 12 months): 94.91 ± 13.66% | Fraction of drug bound in multi-drug nanoparticles (% total) ([1]; 17 months, one batch): 90.50% | AUC 0-8 (%) of total, LNP [2, 9]: 11.3% | AUC 8-168 (%) of total, LNP [2, 9]: 88.7% | AUC fraction (% of total) Anti-HIV LNP 24-168 h [2, 9]: 57.0 ± 12.5% | concentration at 24 h [2, 10]: 164 ± 116 ng/mL | concentration at 24 h [2, 11]: 5.9 ± 9.3 ng/mL | AUC fraction (% total) 8-168 h [3]: 80.4% | AUC 0-8 h ([3]; plasma, average of two primates, sc ATV/RTV/TFV LNPs 25/12.8/15.3 mg/kg): 339.1 ng·h/mL | % Drug released from anti-HIV nanoparticles ([4]; pH 4.0, 37° C.): 94.9 ± 0.7% | % Drug released from anti-HIV nanoparticles ([4]; pH 5.5, 37° C.): 29.0 ± 11.6% | % Drug released from anti-HIV nanoparticles ([4]; pH 6.5, 37° C.): 3.2 ± 4.9% | % Drug released from anti-HIV nanoparticles ([4]; pH 7.4, 37° C.): 2 ± 1% | EC50 [5, 12]: 3 ± 0.8 nM | EC50 [5, 13]: 98 ± 0.3 nM | EC50 ([5]; Human immunodeficiency virus 2, CEM174, read-out: EC50 (nM), Single agent controls, single agent): 530 ± 0.2 nM | EC50 ([5]; read-out: EC50 (nM), Single agent controls, single agent): 1040 nM | Kp at 24 h ([6]; Free drug treatment, 24 h): 5.5 | concentration at 24 h ([6]; Anti-HIV LNP treatment): 1640 ± 19 ng/mL | concentration at 24 h ([6]; Free drug treatment): 32.6 ± 32.6 ng/mL | % particle-bound [7, 14]: (83.4 ± 1.4) % | % particle-bound [7, 15]: (88.5 ± 3.1) % | Degree of incorporation (% total) ([7]; clinical scale (15-40 ml)): 90.7 ± 7.4% | Degree of incorporation (% total) ([7]; laboratory scale (0.1-0.4 ml)): 74.2 ± 8.4% | EC50 [8, 16]: 30 ± 0.8 nM | EC50 [8, 17]: 98 ± 0.3 nM

C[C@H](Cn1cnc2c(N)ncnc21)OCP(=O)(O)O [Tenofovir (TFV), [(2R)-1-(6-aminopurin-9-yl)propan-2-yl]oxymethylphosphonic acid]
Fraction of drug bound in multi-drug nanoparticles (% total) ([1]; 0 months): 9.32 ± 3.79% | Fraction of drug bound in multi-drug nanoparticles (% total) ([1]; 8 months): 7.72 ± 2.95% | Fraction of drug bound in multi-drug nanoparticles (% total) ([1]; 12 months): 8.79 ± 0.92% | Fraction of drug bound in multi-drug nanoparticles (% total) ([1]; 17 months, one batch): 7.30% | AUC LNP/free ratio ([2]; 0-168 h): 7.0 | Ratio comparison between treatments (LNP/free), Plasma ([2]; 24 h): 3992.8 | LNP/free ratio of plasma AUC 0-168 [2]: 7.0 | LNP/free ratio of plasma AUC 0-168 ([2]; listed as TFV): 7 | AUC 0-8 (%) of total, LNP [2, 9]: 9.1% | AUC 8-168 (%) of total, LNP [2, 9]: 90.9% | concentration at 24 h [2, 10]: 3600 ± 3510 ng/mL | concentration at 24 h [2, 11]: 0.9 ± 1.1 ng/mL | AUC fraction (% of total) Anti-HIV LNP 0-24 h ([2]; plasma): 48.8 ± 33.7% | AUC fraction (% of total) Free drug 0-24 h ([2]; plasma): 99.9 ± 0.2% | AUC Free drug 0-168 h ([2]; plasma, sc 25/14.3/17.1 mg/kg LPV/RTV/PMPA, four animals): 56600 ± 17040 ng·h/mL | AUC fraction (% of total) Anti-HIV LNP 24-168 h ([2]; plasma, listed as PMPA): 51.2% | AUC fraction (% of total) Free drug 24-168 h ([2]; plasma, listed as PMPA): 0.1% | AUC fraction (% of total) Anti-HIV LNP 24-168 h [2, 18]: 51.2 ± 33.7% | AUC fraction (% of total) Free drug 24-168 h [2, 18]: 0.1 ± 0.2% | AUC fraction (% total) 8-168 h [3]: 97.4% | % Drug released from anti-HIV nanoparticles ([4]; pH 4.0, 37° C.): 28.7 ± 0.9% | % Drug released from anti-HIV nanoparticles ([4]; pH 5.5, 37° C.): 11.2 ± 1.5% | % Drug released from anti-HIV nanoparticles ([4]; pH 6.5, 37° C.): 15.9 ± 5.4% | % Drug released from anti-HIV nanoparticles ([4]; pH 7.4, 37° C.): 0 ± 2% | EC50 [5, 12]: 1.5 ± 0.1 nM | EC50 [5, 13]: 49 ± 0.2 nM | EC50 ([5]; read-out: EC50 (nM), Single agent controls, single agent, listed as PMPA): 1150 ± 0.7 nM | EC50 ([5]; read-out: EC50 (nM), Single agent controls, single agent, listed as Tenofovir (PMPA/TFV)): 100 to 6000 nM | LNP/free ratio, mononuclear cells of inguinal nodes ([6]; 24 h): 0.7 | Ratio comparison between treatments (LNP/free), Lymph node ([6]; 24 h): 0.7 | LNP/free ratio, mononuclear cells of inguinal nodes ([6]; 24 h, listed as TFV): 0.7 | Kp at 24 h ([6]; Anti-HIV LNP treatment, 24 h): 0.1 | Kp at 24 h ([6]; Free drug treatment, 24 h): 284 | concentration at 24 h ([6]; Anti-HIV LNP treatment): 190 ± 22.8 ng/mL | concentration at 24 h ([6]; Free drug treatment): 256 ± 31.5 ng/mL | % particle-bound [7, 14]: (9.9 ± 2.9) % | % particle-bound [7, 15]: (7.9 ± 1.8) % | % particle-bound ([7]; Combination 3, lipid:LPV:EFV:TFV 200:26.6:20:40, large scale): (7.9) % | stable lipid association ([7]; across drug combinations): 8-10% | Degree of incorporation (% total) ([7]; clinical scale (15-40 ml), listed as PMPA): 12% | Degree of incorporation (% total) ([7]; clinical scale (15-40 ml), listed as Tenofovir): 11.9 ± 3.0% | Degree of incorporation (% total) ([7]; laboratory scale (0.1-0.4 ml)): 11.8 ± 5.1% | EC50 [8, 16]: 15 ± 0.1 nM | EC50 [8, 17]: 49 ± 0.2 nM

— patent publication US10799456B2, “Multiple drug lipid nanoparticle composition and related methods for extended drug levels in blood and lymph tissue” (priority 2015, dated 2020)
